# Earlier results as cited in PMC11768433 (Viruses, 2024).
# Read-outs that look alike come from different tables or passages of the source.
# Experiments:
# [1] = system: Human parainfluenza viruse 3(HPIV 3); design: method as in Ref.28344321; conditions: HPIV 3 infection, Vero cells; ref Ref.28344321
# [2] = system: Vero cells; design: method as in Ref.28344321; conditions: ref Ref.28344321
# [3] = system: P4 cells; design: method as in Ref.12054767; conditions: MTT assay, peptide concentrations higher than 100 μM, ref Ref.12054767
# [4] = system: P4-CCR5 cells; design: method as in Ref.17448989; conditions: up to 1000 µM, ref Ref.17448989
# [5] = system: Feline immunodeficiency virus (FIV); conditions: FIV replication, CrFK cells, at 16 µg/ml; ref Ref.8661378
# [6] = system: HSV-1; design: method as in Ref.35216177; conditions: HSV-1 replication, Vero cells; ref Ref.35216177
# [7] = system: SARS-CoV-2; design: method as in Ref.35216177; conditions: SARS-CoV-2 replication, Vero cells; ref Ref.35216177
# [8] = system: influenza virus(H1N1,VR-1894); design: method as in Ref.35216177; conditions: influenza H1N1 VR-1894 replication, MDKC cells; ref Ref.35216177
# [9] = system: Vero cells; design: method as in Ref.35216177; conditions: ref Ref.35216177
# [10] = system: Human endocervical cells End1/E6E7; design: method as in Ref.26026377; conditions: ref Ref.26026377
# [11] = system: HSV-2; design: method as in Ref.35216177; conditions: HSV-2 replication, Vero cells; ref Ref.35216177
# [12] = system: HCoV-OC43; design: method as in Ref.35216177; conditions: HCoV-OC43 replication, Vero cells; ref Ref.35216177
# [13] = system: TZM-bl cell; design: method as in Ref.30089693; conditions: ref Ref.30089693
# [14] = system: PBMC; conditions: PBMC; ref Ref.30089693
# [15] = system: HCoV-229E; design: method as in Ref.35216177; conditions: HCoV-229E replication, Vero cells; ref Ref.35216177
# [16] = system: H9 cells; design: method as in Ref.12480936; conditions: up to 50 μM, ref Ref.12480936
substance,measurement,setting,value
VALDPIDIAnti-SIVLNKAKSDLEESKEWIRRSNGKLDSIGSGSGX [DRAVPe01793],IC90,[1],0.0007 ± 7e-06 µM
same,CC50,[2],4.5 µM
"YQLLIRPIYKNI [DRAVPe00110, DRAVP database peptide, target HIV-1 integrase]",decrease of cell viability,[3],~5%
"QLLIRMIYKNI [DRAVPe00109, DRAVP database peptide, target HIV-1 integrase]",decrease of cell viability,[3],~5%
LEAIPMGIPpEVXFNKPFVF [DRAVPe00228],cytotoxicity,[4],[Ref.17448989]No cytotoxicity against P4-CCR5 cells up tp 1000 µM.
"YQALIRMIYKNI [DRAVPe00097, DRAVP database peptide, target HIV-1 integrase]",decrease of cell viability,[3],~5%
"YQLLIRMIYANI [DRAVPe00104, DRAVP database peptide, target HIV-1 integrase]",decrease of cell viability,[3],~5%
"YLDRVDTWLQGKINISLCLT [DRAVPe00846, DRAVP database peptide, target FIV]",inhibition,[5],9%
"CFVPWFSKFlXRIL [DRAVPe00391, DRAVP database entry, TL peptide]",IC90,[6],2.19 µM
same,IC90,[7],1.89 µM
same,IC90,[8],5.89 µM
same,CC50,[9],[Ref.35216177]Vero cells:CC50>100.00 μM
KVINPEPIVEPFMSKPFALF [DRAVPe00230],cytotoxicity,[4],[Ref.17448989]No cytotoxicity against P4-CCR5 cells up tp 1000 µM.
"GLFSVLGAVAKHVLPHVVPVIAEKL [DRAVPe00355, DRAVP database peptide, target HIV]",concentration at 50% cell death,[10],10 µM
"FVPWFSKFlXRILC [DRAVPe00389, DRAVP database entry, TL peptide]",IC90,[6],11.1 µM
same,IC90,[7],12 µM
same,IC90,[8],10 µM
same,CC50,[9],[Ref.35216177]Vero cells:CC50>100.00 μM
"GLLSVLGSVVKHVIPHVVPVIAEHL [DRAVPe00360, DRAVP database peptide, target HIV]",concentration at 50% cell death,[10],12.5 µM
"LFYLVPGPGH [DRAVPe00094, DRAVP database peptide, target HIV-1 integrase]",decrease of cell viability,[3],~5%
"QLLIRMIYKNILFYLVPGPGHGAEPERRNIKYL [DRAVPe00090, DRAVP database peptide, target HIV-1 integrase]",decrease of cell viability,[3],~5%
"FVPWFSKFlPRIL [DRAVPe00378, DRAVP database entry, TL peptide]",IC90,[6],18.8 µM
same,IC90,[11],19.2 µM
same,IC90,[7],14 µM
same,IC90,[12],24.1 µM
same,CC50,[9],56.52 µM
"FVPWFSKFlXRILGGC [DRAVPe00390, DRAVP database entry, TL peptide]",IC90,[6],48 µM
same,IC90,[7],50 µM
same,IC90,[8],49.9 µM
same,CC50,[9],[Ref.35216177]Vero cells:CC50>100.00 μM
LEAIPCSIPPCVFFNKPFVF [DRAVPe00221],cytotoxicity,[4],[Ref.17448989]No cytotoxicity against P4-CCR5 cells up tp 1000 µM.
WEQKIEELLKKAEEQQKKNEEELKKLEX [DRAVPe00785],CC50,[13],112.9 µM
same,CC50,[14],114.8 µM
LEAIPMSIPPEFLFGKPFVF [DRAVPe00223],cytotoxicity,[4],[Ref.17448989]No cytotoxicity against P4-CCR5 cells up tp 1000 µM.
LEAIPCSIPPCFAFNKPFVF [DRAVPe00222],cytotoxicity,[4],[Ref.17448989]No cytotoxicity against P4-CCR5 cells up tp 1000 µM.
"YQLAIRMIYKNI [DRAVPe00098, DRAVP database peptide, target HIV-1 integrase]",decrease of cell viability,[3],~5%
"PACQDFLGAMIHLKAKTNISIR [DRAVPe00840, DRAVP database peptide, target FIV]",inhibition,[5],28%
"FVPWFSKFlpRIL [DRAVPe00379, DRAVP database entry, TL peptide]",CC50,[9],[Ref.35216177]Vero cells:CC50>100 μM
VALDPIDIAnti-SIVLNKAKSDLEESKEWIRRSNGKLDSIGSGSGC [DRAVPe01791],IC90,[1],0.28 ± 0.247 µM
same,CC50,[2],[Ref.28344321]Vero cells: CC50>10000 nM.
"FVQWFSKFLGRIL [DRAVPe00376, DRAVP database entry, TL peptide]",IC90,[6],15.7 µM
same,IC90,[11],16 µM
same,CC50,[9],19.61 µM
"GLFKVLGSVAKHLLPHVAPVIAEKL [DRAVPe00356, DRAVP database peptide, target HIV]",concentration at 50% cell death,[10],12.5 µM
"FVPWFSKFlXRIL [DRAVPe00396, DRAVP database entry, TL peptide]",IC90,[6],4.96 µM
same,IC90,[7],6.96 µM
same,IC90,[8],7.11 µM
same,CC50,[9],[Ref.35216177]Vero cells:CC50>100.00 μM
LEAIPMSIPPEVKFNKPFVF [DRAVPe00192],cytotoxicity,[4],[Ref.17448989]No cytotoxicity against P4-CCR5 cells up tp 1000 µM.
"FVPWFSKFlWRIL [DRAVPe00385, DRAVP database entry, TL peptide]",IC90,[6],8.25 µM
same,IC90,[11],12.5 µM
same,IC90,[7],27.7 µM
same,IC90,[15],50 µM
same,IC90,[12],24.2 µM
same,CC50,[9],35.47 µM
"LKAKTNISIREGPTLGNWAR [DRAVPe00841, DRAVP database peptide, target FIV]",inhibition,[5],24%
"SNQGGSPLPRSV [DRAVPe00127, DRAVP database peptide, target HIV-1 Vif proteins]",cytotoxicity,[16],[Ref.12480936]No significant cytotoxicity on H9 cells up to 50 μM.
"LSELDDRADALQAGASQFETSAAKLKRKYWWKN [DRAVPe00111, DRAVP database peptide, target HIV-1 integrase]",decrease of cell viability,[3],~5%
"FVPWFSKFlwRIL [DRAVPe00386, DRAVP database entry, TL peptide]",IC90,[6],7.89 µM
same,IC90,[11],9.76 µM
same,IC90,[7],14.8 µM
same,IC90,[15],50 µM
same,IC90,[12],17.4 µM
same,CC50,[9],24.12 µM
"CGGFVPWFSKFlXRIL [DRAVPe00392, DRAVP database entry, TL peptide]",IC90,[6],8.21 µM
same,IC90,[7],10.2 µM
same,IC90,[8],9.9 µM
same,CC50,[9],[Ref.35216177]Vero cells:CC50>100.00 μM
LEAIPCSIPpCFLFNKPFVF [DRAVPe00227],cytotoxicity,[4],[Ref.17448989]No cytotoxicity against P4-CCR5 cells up tp 1000 µM.
XGSGSGVALDPIDIAnti-SIVLNKAKSDLEESKEWIRRSNGKLDSI [DRAVPe01796],IC90,[1],0.0001 ± 1e-07 µM
same,CC50,[2],[Ref.28344321]Vero cells: CC50>10000 nM.
"LPLPAPSFHRTT [DRAVPe00128, DRAVP database peptide, target HIV-1 Vif proteins]",cytotoxicity,[16],[Ref.12480936]No significant cytotoxicity on H9 cells up to 50 μM.
"FVPWFSKFlGRIL [DRAVPe00377, DRAVP database entry, TL peptide]",IC90,[6],18.7 µM
same,IC90,[11],16.7 µM
same,IC90,[7],12.1 µM
same,IC90,[15],30.1 µM
same,IC90,[12],15 µM
same,CC50,[9],42.18 µM
LEANIEELLKKAEEQQKKNEEELKKLEX [DRAVPe00784],CC50,[13],434.03 µM
same,CC50,[14],46.83 µM
IEELLKKAEEQQKKNEEELKKLEX [DRAVPe00660],CC50,[13],256.23 µM
same,CC50,[14],49.95 ± 2.97 µM
"FVPWFSKFlxRIL [DRAVPe00382, DRAVP database entry, TL peptide]",IC90,[6],12.8 µM
same,IC90,[11],11.9 µM
same,IC90,[7],17.4 µM
same,IC90,[15],> 50 µM
same,IC90,[12],24.7 µM
same,CC50,[9],32.16 µM
"FVPWFSKFlXRIL [DRAVPe00380, DRAVP database entry, TL peptide]",IC90,[6],15.9 µM
same,IC90,[11],19 µM
same,IC90,[7],25 µM
same,IC90,[15],> 50 µM
same,IC90,[12],27.7 µM
same,CC50,[9],60.90 µM
"KPKQIKPPLPSV [DRAVPe00130, DRAVP database peptide, target HIV-1 Vif proteins]",cytotoxicity,[16],[Ref.12480936]No significant cytotoxicity on H9 cells up to 50 μM.
